Results published in the supplement of paper PMC10307832.

What was measured:
Assay in all cases: relative viability (nuclei count vs DMSO), 5 days (fraction); higher = more cells survive
Pictilisib + OSI-027 = compound: CS(=O)(=O)N1CCN(Cc2cc3nc(-c4cccc5[nH]ncc45)nc(N4CCOCC4)c3s2)CC1 [Pictilisib] + COc1cccc2cc(-c3nc([C@H]4CC[C@H](C(=O)O)CC4)n4ncnc(N)c34)[nH]c12 [OSI-027] (partner 0.5 µM)
In short: (§1)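 Relative viability divides the nuclei count in treated wells by that in vehicle wells. Lung cancer cell lines were seeded in 1536-well plates, dosed by pin tool the next day, and fixed and stained after 5 days in one step with final 0.05% Triton X-100, 1% formaldehyde and 1 ug/ml Hoechst. Dosing was a single drug or a fixed anchor-drug dose plus five library-drug doses (not always all listed) in √10 steps, and values are medians of duplicate plates imaged at 4×.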

Pictilisib + Tozasertib = compound: CS(=O)(=O)N1CCN(Cc2cc3nc(-c4cccc5[nH]ncc45)nc(N4CCOCC4)c3s2)CC1 [Pictilisib] + Cc1cc(Nc2cc(N3CCN(C)CC3)nc(Sc3ccc(NC(=O)C4CC4)cc3)n2)n[nH]1 [Tozasertib] (partner 0.1 µM)
In short: as §1

MK-2206 + Crizotinib = compound: NC1(c2ccc(-c3nc4ccn5c(=O)[nH]nc5c4cc3-c3ccccc3)cc2)CCC1 [MK-2206] + C[C@@H](Oc1cc(-c2cnn(C3CCNCC3)c2)cnc1N)c1c(Cl)ccc(F)c1Cl [Crizotinib] (partner 1 µM)
In short: as §1

MK-2206 + Vorinostat = compound: NC1(c2ccc(-c3nc4ccn5c(=O)[nH]nc5c4cc3-c3ccccc3)cc2)CCC1 [MK-2206] + O=C(CCCCCCC(=O)Nc1ccccc1)NO [Vorinostat] (partner 1 µM)
In short: as §1

MK-2206 + Luminespib = compound: NC1(c2ccc(-c3nc4ccn5c(=O)[nH]nc5c4cc3-c3ccccc3)cc2)CCC1 [MK-2206] + CCNC(=O)c1noc(-c2cc(C(C)C)c(O)cc2O)c1-c1ccc(CN2CCOCC2)cc1 [Luminespib] (partner 0.01 µM)
In short: as §1

HCC-78
relative viability (Pictilisib + OSI-027; first compound 0.02 µM): 0.334 | relative viability (Pictilisib + OSI-027; first compound 0.06325 µM): 0.376 | relative viability (Pictilisib + OSI-027; first compound 0.6325 µM): 0.285 | relative viability (Pictilisib + OSI-027; first compound 2 µM): 0.275 | relative viability (Pictilisib + Tozasertib; first compound 0.02 µM): 0.427 | relative viability (Pictilisib + Tozasertib; first compound 0.06325 µM): 0.46 | relative viability (Pictilisib + Tozasertib; first compound 0.6325 µM): 0.309 | relative viability (Pictilisib + Tozasertib; first compound 2 µM): 0.281 | relative viability (MK-2206 + Crizotinib; first compound 0.01 µM): 0.348 | relative viability (MK-2206 + Crizotinib; first compound 0.03162 µM): 0.33 | relative viability (MK-2206 + Crizotinib; first compound 0.3162 µM): 0.289 | relative viability (MK-2206 + Crizotinib; first compound 1 µM): 0.286 | relative viability (MK-2206 + Vorinostat; first compound 0.01 µM): 0.439 | relative viability (MK-2206 + Vorinostat; first compound 0.03162 µM): 0.504 | relative viability (MK-2206 + Vorinostat; first compound 0.3162 µM): 0.408 | relative viability (MK-2206 + Vorinostat; first compound 1 µM): 0.398

HCC-366
relative viability (Pictilisib + OSI-027; first compound 0.02 µM): 0.955 | relative viability (Pictilisib + OSI-027; first compound 0.06325 µM): 0.822 | relative viability (Pictilisib + OSI-027; first compound 0.6325 µM): 0.432 | relative viability (Pictilisib + OSI-027; first compound 2 µM): 0.104 | relative viability (Pictilisib + Tozasertib; first compound 0.02 µM): 0.19 | relative viability (Pictilisib + Tozasertib; first compound 0.06325 µM): 0.0882 | relative viability (Pictilisib + Tozasertib; first compound 0.6325 µM): 0.0364 | relative viability (Pictilisib + Tozasertib; first compound 2 µM): 0.0156 | relative viability (MK-2206 + Crizotinib; first compound 0.01 µM): 0.48 | relative viability (MK-2206 + Crizotinib; first compound 0.03162 µM): 0.532 | relative viability (MK-2206 + Crizotinib; first compound 0.3162 µM): 0.452 | relative viability (MK-2206 + Crizotinib; first compound 1 µM): 0.442 | relative viability (MK-2206 + Vorinostat; first compound 0.01 µM): 0.341 | relative viability (MK-2206 + Vorinostat; first compound 0.03162 µM): 0.448 | relative viability (MK-2206 + Vorinostat; first compound 0.3162 µM): 0.26 | relative viability (MK-2206 + Vorinostat; first compound 1 µM): 0.254

HCC-827
relative viability (Pictilisib + OSI-027; first compound 0.02 µM): 0.824 | relative viability (Pictilisib + OSI-027; first compound 0.06325 µM): 0.696 | relative viability (Pictilisib + OSI-027; first compound 0.6325 µM): 0.338 | relative viability (Pictilisib + OSI-027; first compound 2 µM): 0.192 | relative viability (Pictilisib + Tozasertib; first compound 0.02 µM): 0.436 | relative viability (Pictilisib + Tozasertib; first compound 0.06325 µM): 0.441 | relative viability (Pictilisib + Tozasertib; first compound 0.6325 µM): 0.312 | relative viability (Pictilisib + Tozasertib; first compound 2 µM): 0.2 | relative viability (MK-2206 + Luminespib; first compound 0.01 µM): 0.638 | relative viability (MK-2206 + Luminespib; first compound 0.03162 µM): 0.723 | relative viability (MK-2206 + Luminespib; first compound 0.3162 µM): 0.421 | relative viability (MK-2206 + Luminespib; first compound 1 µM): 0.636 | relative viability (MK-2206 + Crizotinib; first compound 0.01 µM): 0.966 | relative viability (MK-2206 + Crizotinib; first compound 0.03162 µM): 0.874 | relative viability (MK-2206 + Crizotinib; first compound 0.3162 µM): 0.977 | relative viability (MK-2206 + Crizotinib; first compound 1 µM): 0.98 | relative viability (MK-2206 + Vorinostat; first compound 0.01 µM): 0.791 | relative viability (MK-2206 + Vorinostat; first compound 0.03162 µM): 0.847 | relative viability (MK-2206 + Vorinostat; first compound 0.3162 µM): 0.816 | relative viability (MK-2206 + Vorinostat; first compound 1 µM): 0.323

HOP-62
relative viability (Pictilisib + OSI-027; first compound 0.02 µM): 0.929 | relative viability (Pictilisib + OSI-027; first compound 0.06325 µM): 0.868 | relative viability (Pictilisib + OSI-027; first compound 0.6325 µM): 0.666 | relative viability (Pictilisib + OSI-027; first compound 2 µM): 0.535 | relative viability (Pictilisib + Tozasertib; first compound 0.02 µM): 0.319 | relative viability (Pictilisib + Tozasertib; first compound 0.06325 µM): 0.415 | relative viability (Pictilisib + Tozasertib; first compound 0.6325 µM): 0.369 | relative viability (Pictilisib + Tozasertib; first compound 2 µM): 0.304 | relative viability (MK-2206 + Luminespib; first compound 0.01 µM): 0.91 | relative viability (MK-2206 + Luminespib; first compound 0.03162 µM): 0.899 | relative viability (MK-2206 + Luminespib; first compound 0.3162 µM): 0.919 | relative viability (MK-2206 + Luminespib; first compound 1 µM): 0.854 | relative viability (MK-2206 + Crizotinib; first compound 0.01 µM): 1.04 | relative viability (MK-2206 + Crizotinib; first compound 0.03162 µM): 0.945 | relative viability (MK-2206 + Crizotinib; first compound 0.3162 µM): 0.903 | relative viability (MK-2206 + Crizotinib; first compound 1 µM): 1.03 | relative viability (MK-2206 + Vorinostat; first compound 0.01 µM): 0.491 | relative viability (MK-2206 + Vorinostat; first compound 0.03162 µM): 0.632 | relative viability (MK-2206 + Vorinostat; first compound 0.3162 µM): 0.492 | relative viability (MK-2206 + Vorinostat; first compound 1 µM): 0.656

IA-LM
relative viability (MK-2206 + Crizotinib; first compound 0.03162 µM): 0.867 | relative viability (MK-2206 + Crizotinib; first compound 0.3162 µM): 0.807 | relative viability (MK-2206 + Crizotinib; first compound 1 µM): 0.819 | relative viability (MK-2206 + Vorinostat; first compound 0.01 µM): 0.935 | relative viability (MK-2206 + Vorinostat; first compound 0.03162 µM): 1.11 | relative viability (MK-2206 + Vorinostat; first compound 0.3162 µM): 1.02 | relative viability (MK-2206 + Vorinostat; first compound 1 µM): 1.02

LC-2-ad
relative viability (Pictilisib + OSI-027; first compound 0.02 µM): 0.881 | relative viability (Pictilisib + OSI-027; first compound 0.06325 µM): 0.781 | relative viability (Pictilisib + OSI-027; first compound 0.6325 µM): 0.475 | relative viability (Pictilisib + OSI-027; first compound 2 µM): 0.396 | relative viability (Pictilisib + Tozasertib; first compound 0.02 µM): 0.482 | relative viability (Pictilisib + Tozasertib; first compound 0.06325 µM): 0.516 | relative viability (Pictilisib + Tozasertib; first compound 0.6325 µM): 0.345 | relative viability (Pictilisib + Tozasertib; first compound 2 µM): 0.264 | relative viability (MK-2206 + Luminespib; first compound 0.01 µM): 1.01 | relative viability (MK-2206 + Luminespib; first compound 0.03162 µM): 1.01 | relative viability (MK-2206 + Luminespib; first compound 0.3162 µM): 1.24 | relative viability (MK-2206 + Luminespib; first compound 1 µM): 1.08 | relative viability (MK-2206 + Crizotinib; first compound 0.01 µM): 0.494 | relative viability (MK-2206 + Crizotinib; first compound 0.03162 µM): 0.453 | relative viability (MK-2206 + Crizotinib; first compound 0.3162 µM): 0.435 | relative viability (MK-2206 + Crizotinib; first compound 1 µM): 0.42 | relative viability (MK-2206 + Vorinostat; first compound 0.01 µM): 0.663 | relative viability (MK-2206 + Vorinostat; first compound 0.03162 µM): 0.72 | relative viability (MK-2206 + Vorinostat; first compound 0.3162 µM): 0.753 | relative viability (MK-2206 + Vorinostat; first compound 1 µM): 0.665

LCLC-97TM1
relative viability (Pictilisib + OSI-027; first compound 0.02 µM): 0.4 | relative viability (Pictilisib + OSI-027; first compound 0.06325 µM): 0.488 | relative viability (Pictilisib + OSI-027; first compound 0.6325 µM): 0.301 | relative viability (Pictilisib + OSI-027; first compound 2 µM): 0.253 | relative viability (Pictilisib + Tozasertib; first compound 0.02 µM): 0.251 | relative viability (Pictilisib + Tozasertib; first compound 0.06325 µM): 0.211 | relative viability (Pictilisib + Tozasertib; first compound 0.6325 µM): 0.0992 | relative viability (Pictilisib + Tozasertib; first compound 2 µM): 0.0885 | relative viability (MK-2206 + Luminespib; first compound 0.01 µM): 0.873 | relative viability (MK-2206 + Luminespib; first compound 0.03162 µM): 0.775 | relative viability (MK-2206 + Luminespib; first compound 0.3162 µM): 0.618 | relative viability (MK-2206 + Luminespib; first compound 1 µM): 0.616 | relative viability (MK-2206 + Crizotinib; first compound 0.01 µM): 0.34 | relative viability (MK-2206 + Crizotinib; first compound 0.03162 µM): 0.329 | relative viability (MK-2206 + Crizotinib; first compound 0.3162 µM): 0.303 | relative viability (MK-2206 + Crizotinib; first compound 1 µM): 0.284 | relative viability (MK-2206 + Vorinostat; first compound 0.01 µM): 0.578 | relative viability (MK-2206 + Vorinostat; first compound 0.03162 µM): 0.779 | relative viability (MK-2206 + Vorinostat; first compound 0.3162 µM): 0.625 | relative viability (MK-2206 + Vorinostat; first compound 1 µM): 0.734

LCLC-103H
relative viability (Pictilisib + OSI-027; first compound 0.02 µM): 0.494 | relative viability (Pictilisib + OSI-027; first compound 0.06325 µM): 0.438 | relative viability (Pictilisib + OSI-027; first compound 0.6325 µM): 0.287 | relative viability (Pictilisib + OSI-027; first compound 2 µM): 0.262 | relative viability (Pictilisib + Tozasertib; first compound 0.02 µM): 0.636 | relative viability (Pictilisib + Tozasertib; first compound 0.06325 µM): 0.456 | relative viability (Pictilisib + Tozasertib; first compound 0.6325 µM): 0.339 | relative viability (Pictilisib + Tozasertib; first compound 2 µM): 0.26 | relative viability (MK-2206 + Luminespib; first compound 0.01 µM): 0.983 | relative viability (MK-2206 + Luminespib; first compound 0.03162 µM): 1.06 | relative viability (MK-2206 + Luminespib; first compound 0.3162 µM): 0.975 | relative viability (MK-2206 + Luminespib; first compound 1 µM): 0.89 | relative viability (MK-2206 + Crizotinib; first compound 0.01 µM): 0.989 | relative viability (MK-2206 + Crizotinib; first compound 0.03162 µM): 0.963 | relative viability (MK-2206 + Crizotinib; first compound 0.3162 µM): 0.99 | relative viability (MK-2206 + Crizotinib; first compound 1 µM): 1.04 | relative viability (MK-2206 + Vorinostat; first compound 0.01 µM): 0.764 | relative viability (MK-2206 + Vorinostat; first compound 0.03162 µM): 0.827 | relative viability (MK-2206 + Vorinostat; first compound 0.3162 µM): 0.701 | relative viability (MK-2206 + Vorinostat; first compound 1 µM): 0.743
